We go through 4 compounds from patent EP3509566B1, “COMPOUNDS FOR REDUCING CELLULAR MELANIN CONTENT” (Unilever N.V., priority 2016, dated 2018).

Structures are written as SMILES. Like-named read-outs stand apart in the source and are kept apart here.

A short description of series [1]: Cell viability assay (calcein method). The series is classed as cell-based, human. The following applies: human, epidermal melanocytes. Here is the method:
(§1) A set of indolyl compounds were purchased from SIGMA-ALDRICH as stocks of 10 mM in 100% DMSO. They were initially examined at 25 uM concentration in cell culture (Table 1) for their ability to reduce melanin content and then, at different doses (Table 2). Neonatal foreskin primary human epidermal melanocytes was sourced from Cascade Biologicals (labelled passage P0). Melanocytes were maintained in Medium 254CF (Cascade Cat. # M-254CF-500) supplemented with human melanocyte growth supplement (Cascade; Cat. # S-002-5), hereafter referred to as MGM. Cells were maintained at 37 °C in a humidified incubator with 5 % CO2 atmosphere. 50,000 cells were seeded in 24 well plate in MGM. After 24 hours, the cultures were treated with various concentrations of test materials and were left undisturbed for a further period of 72 hours. Comparative vehicle controls of 0.25 % (v/v) DMSO were also set up in parallel, simultaneously. At the end of the incubation period, the cell viability was determined using the calcein method. Briefly, cell culture spent media was removed and cells washed once with 0.4 ml of 1x PBS-Ca-Mg solution. […] Plates were covered with aluminium foil and incubated for 30 minutes at 37 °C in the regular CO2 incubator. […] Percentage Melanin content was calculated as the ratio between OD405nm value of any sample to that of DMSO reference sample.

Series [2] relates to Neonatal foreskin primary human epidermal melanocytes. The series can be described thus: Cell viability assay (calcein method). The series is classed as cell-based. Particulars: 72 hours. Here is the method:
as §1

Series [3] shares this test system. The series can be described thus: Melanin content assay (OD405nm of cell lysate). It counts as cell-based. The method, then:
A set of indolyl compounds were purchased from SIGMA-ALDRICH as stocks of 10 mM in 100% DMSO. They were initially examined at 25 uM concentration in cell culture (Table 1) for their ability to reduce melanin content and then, at different doses (Table 2). Neonatal foreskin primary human epidermal melanocytes was sourced from Cascade Biologicals (labelled passage P0). Melanocytes were maintained in Medium 254CF (Cascade Cat. # M-254CF-500) supplemented with human melanocyte growth supplement (Cascade; Cat. # S-002-5), hereafter referred to as MGM. Cells were maintained at 37 °C in a humidified incubator with 5 % CO2 atmosphere. 50,000 cells were seeded in 24 well plate in MGM. After 24 hours, the cultures were treated with various concentrations of test materials and were left undisturbed for a further period of 72 hours. Comparative vehicle controls of 0.25 % (v/v) DMSO were also set up in parallel, simultaneously. At the end of the incubation period, the cell viability was determined using the calcein method. […] Cells were lysed by resuspension and incubation (60 °C/one hour.). Then this lysate was transferred to a fresh 384-well plate and measured OD405nm in a TECAN M1000 plate reader (estimate of relative melanin content). […] Percentage Melanin content was calculated as the ratio between OD405nm value of any sample to that of DMSO reference sample.

Setting [4] is: 3.125 µM, 72 hours, Table 2, fresh batch.
Setting [5] is: 6.25 µM, 72 hours, Table 2, fresh batch.
Setting [6] is: 12.5 µM, 72 hours, Table 2, fresh batch.
Setting [7] is: 25 µM, 72 hours, Table 1, 100 = 0.25% DMSO, read-out: % Viability.
[8] abbreviates: 50 µM, 72 hours, Table 2, fresh batch.
[9] abbreviates: 25 µM, 72 hours, Table 2, fresh batch.
Where [10] appears, read: Homo sapiens, Melanocyte, 72 h, 25 µM, 72 hours, Table 1, normalized melanin content, read-out: 100* (%Melanin/% Viability).
Where [11] appears, read: Homo sapiens, Melanocyte, 72 h, 25 µM, 72 hours, Table 1, read-out: % reduction in Melanin.
The mark [12] stands for this setting: Homo sapiens, Melanocyte, 72 h, 25 µM, 72 hours, Table 1, relative to DMSO, read-out: % Melanin.
Where [13] appears, read: Homo sapiens, Melanocyte, 72 h, 25 µM, 72 hours, Table 2, fresh batch, read-out: 100* (% Melanin/%Viability).
[14] abbreviates: Homo sapiens, Melanocyte, 72 h, 25 µM, 72 hours, Table 2, fresh batch, read-out: % Melanin.
The mark [15] stands for this setting: Homo sapiens, Melanocyte, 72 h, 25 µM, 72 hours, Table 2, fresh batch, read-out: % reduction in Melanin.

As for `CC(Cc1c[nH]c2ccccc12)NC(=O)OCCCl` (stereo not shown) [Compound #1, 2-chloroethyl [2-(1H-indol-3-yl)-1-methylethyl] carbamate], the viability at 72 h, 3.125 µM in series [1] (setting [4]) was 94%. Also, in series [1] (setting [5]), the viability at 72 h, 6.25 µM was 96.6%. In series [1] (setting [6]), the viability at 72 h, 12.5 µM was 93.4%. For the same compound, the viability at 72 h, 25 µM in series [1] (setting [7]) is 95%; in series [1] (25 µM, 72 hours, Table 2, fresh batch, read-out: % Viability) it was 93.7%. The viability at 72 h, 50 µM in series [1] (setting [8]) was 88.3%. In addition, the “Calcein Fluorescence” value in series [2] (3.125 µM, Table 2, fresh batch) was 94 arbitrary units; in series [2] (6.25 µM, Table 2, fresh batch), 96.6 arbitrary units; in series [2] (12.5 µM, Table 2, fresh batch) it was 93.4 arbitrary units; in series [2] (25 µM, Table 1), 95 arbitrary unit; in series [2] (25 µM, Table 2, fresh batch of melanocytes), 93.7 arbitrary units; in series [2] (50 µM, Table 2, fresh batch) it was 88.3 arbitrary units. Also, the “% reduction in Melanin” value in series [3] (setting [4]) is recorded as “Nil”. Further, the “OD405nm (Melanin)” value is given as 0.168 in series [3] (setting [4]); 0.146 in series [3] (setting [5]); 0.134 in series [3] (setting [6]); 0.093 in series [3] (25 µM, 72 hours, Table 1); 0.122 in series [3] (setting [9]); 0.103 in series [3] (setting [8]). Besides, the “melanin reduction (in words)” value in series [3] (25 µM, Table 1) is reported as “significant melanin reduction”. The activity at 3.125 µM in series [3] (Homo sapiens, Melanocyte, 72 h, 3.125 µM, 72 hours, Table 2, fresh batch, read-out: 100* (% Melanin/%Viability)) came out at 102%; in series [3] (Homo sapiens, Melanocyte, 72 h, 3.125 µM, 72 hours, Table 2, fresh batch, read-out: % Melanin) it was 96%. For the same compound, the activity at 6.25 µM stood at 85.9% in series [3] (Homo sapiens, Melanocyte, 72 h, 6.25 µM, 72 hours, Table 2, fresh batch, read-out: 100* (% Melanin/%Viability)) and 83% in series [3] (Homo sapiens, Melanocyte, 72 h, 6.25 µM, 72 hours, Table 2, fresh batch, read-out: % Melanin). Moreover, the inhibition at 6.25 µM in series [3] (Homo sapiens, Melanocyte, 72 h, 6.25 µM, 72 hours, Table 2, fresh batch, read-out: % reduction in Melanin) was determined as 14.1%. Also, the activity at 12.5 µM in series [3] (Homo sapiens, Melanocyte, 72 h, 12.5 µM, 72 hours, Table 2, fresh batch, read-out: 100* (% Melanin/%Viability)) was 82.4%; in series [3] (Homo sapiens, Melanocyte, 72 h, 12.5 µM, 72 hours, Table 2, fresh batch, read-out: % Melanin) it was 77%. Also, the inhibition at 12.5 µM in series [3] (Homo sapiens, Melanocyte, 72 h, 12.5 µM, 72 hours, Table 2, fresh batch, read-out: % reduction in Melanin) is 17.6%. Besides, the activity at 25 µM in series [3] (setting [10]) stood at 87%; in series [3] (setting [12]) it was 83%; in series [3] (setting [13]), 74.7%; in series [3] (setting [14]) it was 70%. The inhibition at 25 µM was found to be 13% in series [3] (setting [11]) and 25.3% in series [3] (setting [15]). The activity at 50 µM came out at 66.8% in series [3] (Homo sapiens, Melanocyte, 72 h, 50 µM, 72 hours, Table 2, fresh batch, read-out: 100* (% Melanin/%Viability)) and 59% in series [3] (Homo sapiens, Melanocyte, 72 h, 50 µM, 72 hours, Table 2, fresh batch, read-out: % Melanin). In addition, the inhibition at 50 µM in series [3] (Homo sapiens, Melanocyte, 72 h, 50 µM, 72 hours, Table 2, fresh batch, read-out: % reduction in Melanin) is 33.2%. In series [3] (various doses, Table 2), the “efficacy compared to Kojic acid (in words)” value is listed as “more efficacious at concentrations much lower than Kojic acid”.

Consider `CC(=O)NC(C)Cc1c[nH]c2ccccc12` (stereo not shown) [Compound #2, N-[2-(1H-indol-3-yl)-1-methylethyl]acetamide, reference compound], for which the viability at 72 h, 25 µM in series [1] (setting [7]) was 98%. Moreover, in series [2] (25 µM, Table 1), the “Calcein Fluorescence” value is 98 arbitrary unit. Also, the “OD405nm (Melanin)” value in series [3] (25 µM, 72 hours, Table 1) amounted to 0.108. Also, in series [3] (25 µM, Table 1), the “melanin reduction (in words)” value was “comparatively insignificant”. The activity at 25 µM came to 98% in series [3] (setting [10]) and 96% in series [3] (setting [12]). The inhibition at 25 µM in series [3] (setting [11]) was 2%.

In the case of `CC(=O)O.CC(Cc1c[nH]c2ccccc12)NC(=O)CN` (stereo not shown) [Compound #3, 2-amino-N-[2-(1H-indol-3-yl)-1-methylethyl]acetamide acetate], the viability at 72 h, 25 µM in series [1] (setting [7]) is 111%. Also, in series [2] (25 µM, Table 1), the “Calcein Fluorescence” value is given as 111 arbitrary unit. The “OD405nm (Melanin)” value in series [3] (25 µM, 72 hours, Table 1) was determined as 0.111. The “melanin reduction (in words)” value in series [3] (25 µM, Table 1) was “significant melanin reduction”. Also, the results for the activity at 25 µM in series [3] (setting [10]) and in series [3] (setting [12]) were 89% and 99%, respectively. Also, the inhibition at 25 µM in series [3] (setting [11]) is 11%.

Regarding `O=c1cc(CO)occ1O` [Kojic acid, reference compound], the viability at 72 h, 25 µM in series [1] (% Viability) is 102%. In series [1] (% Viability), the viability at 72 h, 250 µM is 96%. For the same compound, in series [1] (% Viability), the viability at 72 h, 500 µM was 96%. In addition, the “OD405nm (Melanin)” value in series [3] (setting [9]) turned out to be 0.177; in series [3] (250 µM, 72 hours, Table 2, fresh batch), 0.152; in series [3] (500 µM, 72 hours, Table 2, fresh batch) it was 0.139. Besides, the activity at 25 µM was 99.3% in series [3] (setting [13]) and 101% in series [3] (setting [14]). Besides, the inhibition at 25 µM in series [3] (setting [15]) worked out at 0.7%. Besides, the activity at 250 µM is 90.4% in series [3] (Homo sapiens, Melanocyte, 72 h, 250 µM, 72 hours, Table 2, fresh batch, read-out: 100* (% Melanin/%Viability)) and 87% in series [3] (Homo sapiens, Melanocyte, 72 h, 250 µM, 72 hours, Table 2, fresh batch, read-out: % Melanin). The inhibition at 250 µM in series [3] (Homo sapiens, Melanocyte, 72 h, 250 µM, 72 hours, Table 2, fresh batch, read-out: % reduction in Melanin) was 9.6%. Moreover, the activity at 500 µM in series [3] (Homo sapiens, Melanocyte, 72 h, 500 µM, 72 hours, Table 2, fresh batch, read-out: 100* (% Melanin/%Viability)) was 83.3%; in series [3] (Homo sapiens, Melanocyte, 72 h, 500 µM, 72 hours, Table 2, fresh batch, read-out: % Melanin), 80%. The inhibition at 500 µM in series [3] (Homo sapiens, Melanocyte, 72 h, 500 µM, 72 hours, Table 2, fresh batch, read-out: % reduction in Melanin) came out at 16.7%.

The term viability denotes a read-out of living cells in per cent, often relative to untreated cells.
